Reference: patent US20050277190A1, “Pancreatic stem cells” (priority 2004, published 2005)
“Also recorded” adds a separate entry of the source. Ends that are not written are not given here.

Legend:
Format in all cases: cell-based, mouse
[1] = system: PSC spheres; test: PSC sphere colony formation assay and serum-free passaging with BIO; conditions: BIO included during primary serum-free sphere formation and serum-free passaging; period of 5 months
Text: 1) Using the standard PSC sphere colony formation assay, the (commercially available) compound, BIO ((2_Z,3_E)-6-Bromoindirubin-3_-oxime) has been included. […] The GSK-3α/β protein kinases have a critical role within the Wnt-signalling pathway, with their inhibition by BIO leading to an activation of the Wnt pathway. The Wnt pathway is involved with the specification/development of multiple tissues. With BIO inclusion during the primary serum-free sphere formation and subsequent serum-free passaging, PSC spheres can be passaged indefinitely. PSC spheres have been successfully passaged, currently up to the 9th passage over a period of 5 months. The number of sphere-forming cells and resultant clonal spheres expanded (over 30-fold) during this period.
Isolated islets and ductal tissue were then incubated with trypsin (Sigma) at 37° C. and triturated with a small-borehole siliconized pipette into a single cell suspension. Viable cells were counted using Trypan Blue (Sigma) exclusion and plated at 20 cells μl^−1 or less in defined serum-free medium (SFM)^63 containing B27 (Gibco-BRL), 10 ng ml^−1 FGF2 (Sigma), 2 μg ml^−1 heparin (Sigma), and 20 ng ml^−1 EGF (Sigma) for 7-14 DIV. […] Each well was scored after plating for the presence of a single cell. […]

[2] = system: differentiated PSC colonies; test: Insulin release by differentiated PSC colonies (radioimmunoassay); conditions: 1.5 hour incubation; for insulin release in response to high glucose plus agent: 20 mM glucose with 30 nM GLP-1, 10 mM TEA or 100 μM verapamil; for insulin release in response to agent alone: 20 mM glucose (HG) or 100 μM carbachol alone, relative to LG-KRB
Description: PSC colonies were pooled and differentiated (8 per well, 96-well Matrigel-coated plates) for 7 days as described. Twenty-four hours prior to secretion studies, the medium was changed to supplemented RPMI-1640 medium as outlined above. Differentiated PSC colonies were pre-incubated in low glucose (2.5 mM) KRB solution (LG-KRB) for 1 hour. The solution was changed to 150 μl of fresh LG-KRB and the cultures were incubated for 1.5 hours to establish the basal level of insulin release. […] Insulin was measured using an RIA kit (Linco). Insulin release during the experimental 1.5 hour incubation was compared to the level determined during the basal 1.5 hour incubation period for each individual well to obtain a percent change. The data are expressed relative to the percent change measured for the LG-KRB to LG-KRB alone condition.

[3] = system: YFP+ cells from islet- and ductal-derived PSC cultures; test: [Ca2+]i imaging (Fura2) of RIP-YFP+ cells from differentiated PSC colonies; conditions: agent added on top of glucose; single YFP+ cells, islet- and ductal-derived PSC progeny

Row | Compound | insulin release in response to high glucose plus agent [2] | effect of added agent on glucose-stimulated [Ca2+]i response [3] | other results
1 | O=C1Nc2cc(Br)ccc2/C1=C1/Nc2ccccc2/C1=N\O [BIO, (2_Z,3_E)-6-Bromoindirubin-3_-oxime] | – | – | expansion of the number of sphere-forming cells and resultant clonal spheres [1]: over 30 fold
2 | CC[N+](CC)(CC)CC [TEA, tetra ethyl ammonium] | augmentation of this release; also recorded: increased insulin secretion; also recorded: increased insulin release | augmented | –
3 | glucagon-like peptide-1 (HAEGTFTSDVSSYLEGQAAKEFIAWLVKGR; ends and bridges not checked; UniProt P01275 98-127, looked up) [GLP-1, physiological secretagogue known to stimulate β-cells in a glucose-dependent manner] | augmentation of this release; also recorded: increased insulin secretion; also recorded: increased insulin release | augmented | –
4 | C[N+](C)(C)CCOC(N)=O [carbachol] | – | – | insulin release in response to agent alone [2]: insulin release in response to carbachol; also recorded: secrete insulin in response to carbachol; insulin release in response to agent alone ([2]; listed as Carbachol): increased insulin release
5 | COc1ccc(CCN(C)CCCC(C#N)(c2ccc(OC)c(OC)c2)C(C)C)cc1OC (centres unmarked) [verapamil] | abolishes glucose-stimulated insulin release to basal levels; also recorded: abolished the glucose-stimulated insulin release | – | –
